The record followed here is patent publication US20200188477A1, “A MEDICAMENT FOR THE TREATMENT OF DISEASES BY BIOFILM FORMING MICROORGANISMS” (priority 2017, published 2020).

Converted amounts (≈) assume the structure as drawn. Where two headings read alike, the source gives them in different places.

This assay has as its system M. smegmatis. Briefly: microbe, parasite or virus in culture. Format: cell-based, Mycobacterium smegmatis. The following applies: for MIC: Mycolicibacterium smegmatis.

`CC[C@@H](CO)NCCN[C@@H](CC)CO` [ethambutol]: under “absence of cyclosporine A, […]”, the “concentration that inhibits culture” value came to 4 µg/mL. Besides, the “inhibitory effect on culture” value (presence of cyclosporine A, […]) was “enhanced”.

`NNC(=O)c1ccncc1` [isoniazide]: the MIC was 64 µg/mL (≈ 467 µM) (absence of acarbose, PpiB (Tet+), read-out: MIC); 16 µg/mL (≈ 117 µM) (absence of acarbose, VC (Tet+), read-out: MIC); 64 µg/mL (≈ 467 µM) (absence of cyclosporine A, PpiB (tet+), read-out: minimum inhibitory concentration (MIC)); 16 µg/mL (≈ 117 µM) (absence of cyclosporine A, […], read-out: minimum inhibitory concentration (MIC)); 32 µg/mL (presence of acarbose, PpiB (Tet+), read-out: MIC); 32 µg/mL (presence of cyclosporine A, PpiB (tet+), read-out: MIC). Under “presence of cyclosporine A, […], read-out: MIC”, the MIC came out at 8 µg/mL.
